Results on three molecules are retold here after patent publication US20220204473A1, “COMPOUND AS IRAK INHIBITOR” (SHANGHAI MEIYUE BIOTECH DEVELOPMENT CO., LTD., priority 2018, published 2022).

The target of one experiment is T1, CYP3A4 (Homo sapiens, UniProt P08684).
T1 construct: tissue Corning (USA); host or cells: mixed human liver microsomes
As to the kind of experiment: CYP450 inhibition in human liver microsomes, CYP3A4. The experiment is classed as in vitro ADME. As for the experimental part: (§1) This study was intended to investigate the inhibitory effect of the test compounds on five major CYP450 enzyme subtypes CYP1A2, 2C9, 2C19, 2D6 and 3A4 in human liver microsomes. The mixed human liver microsomes used in this assay were purchased from Corning (USA). The test compounds were co-incubated at 7 concentrations with human liver microsomes and five probe substrates (phenacetin for CYP1a2, diclofenac for CYP2C9, mephenytoin for CYP2C19, dextromethorphan for CYP2D6, midazolam for CYP3A4-M, mixed). The reaction was initiated by adding coenzyme NADPH, and terminated by adding acetonitrile containing internal standard. After the proteins were precipitated, the supernatant was centrifuged. The characteristic metabolites in the supernatant (acetaminophen for CYP1A2, 4-hydroxydiclofenac for CYP2C9, 4-hydroxymephenytoin for CYP2C19, dextrorphan for CYP2D6, 1-hydroxymidazolam for CYP3A4-M) were analyzed by LC-MS/MS. The influence of the test compounds on production of the characteristic metabolites was finally analyzed on the basis of the data obtained. A selective inhibitor (ketoconazole for CYP3A4-M) was used as positive control. All samples were tested in duplicate.
A general note: Liver microsomes are a subcellular fraction often used to study metabolism.

In a further experiment the target is T2, CYP2C9 (Homo sapiens, UniProt P11712).
T2 construct: tissue Corning (USA); host or cells: mixed human liver microsomes
T2 sequence (P11712 whole entry): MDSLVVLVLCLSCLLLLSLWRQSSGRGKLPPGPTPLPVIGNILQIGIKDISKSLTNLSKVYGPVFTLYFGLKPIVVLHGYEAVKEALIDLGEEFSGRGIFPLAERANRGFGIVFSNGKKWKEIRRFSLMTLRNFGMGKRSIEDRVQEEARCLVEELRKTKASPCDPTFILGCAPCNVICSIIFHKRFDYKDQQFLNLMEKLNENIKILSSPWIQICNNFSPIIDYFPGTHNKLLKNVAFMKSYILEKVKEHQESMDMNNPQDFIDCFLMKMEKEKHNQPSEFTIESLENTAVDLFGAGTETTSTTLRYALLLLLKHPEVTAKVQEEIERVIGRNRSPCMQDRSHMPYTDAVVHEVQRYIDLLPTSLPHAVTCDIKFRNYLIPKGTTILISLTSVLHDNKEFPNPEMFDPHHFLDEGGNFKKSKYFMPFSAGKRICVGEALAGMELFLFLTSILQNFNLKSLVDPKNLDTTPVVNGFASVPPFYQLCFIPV
Nature of the experiment: CYP450 inhibition in human liver microsomes, CYP2C9. In kind it is in vitro ADME. Here is the method: as §1

For the next experiment, the target named is T3, CYP2D6 (Homo sapiens, UniProt P10635).
T3 construct: tissue Corning (USA); host or cells: mixed human liver microsomes
T3 sequence (P10635 whole entry): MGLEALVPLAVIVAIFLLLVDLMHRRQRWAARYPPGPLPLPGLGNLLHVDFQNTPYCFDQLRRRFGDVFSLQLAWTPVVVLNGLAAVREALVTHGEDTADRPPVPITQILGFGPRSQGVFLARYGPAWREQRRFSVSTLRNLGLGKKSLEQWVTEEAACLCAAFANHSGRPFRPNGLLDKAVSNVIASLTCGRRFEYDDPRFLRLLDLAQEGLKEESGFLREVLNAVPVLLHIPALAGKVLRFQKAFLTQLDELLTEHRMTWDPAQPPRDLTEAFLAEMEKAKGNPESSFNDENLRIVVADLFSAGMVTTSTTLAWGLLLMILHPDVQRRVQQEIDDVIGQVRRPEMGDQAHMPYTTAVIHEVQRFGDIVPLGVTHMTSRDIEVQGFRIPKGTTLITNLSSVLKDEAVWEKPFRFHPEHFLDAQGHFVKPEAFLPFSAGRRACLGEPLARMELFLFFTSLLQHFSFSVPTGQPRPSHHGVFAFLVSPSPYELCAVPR
Nature of the experiment: CYP450 inhibition in human liver microsomes, CYP2D6. The experiment is classed as in vitro ADME. Here is the method: as §1

Another experiment addresses T4, CYP1A2 (Homo sapiens, UniProt P05177).
T4 construct: tissue Corning (USA); host or cells: mixed human liver microsomes
T4 sequence (P05177 1-516): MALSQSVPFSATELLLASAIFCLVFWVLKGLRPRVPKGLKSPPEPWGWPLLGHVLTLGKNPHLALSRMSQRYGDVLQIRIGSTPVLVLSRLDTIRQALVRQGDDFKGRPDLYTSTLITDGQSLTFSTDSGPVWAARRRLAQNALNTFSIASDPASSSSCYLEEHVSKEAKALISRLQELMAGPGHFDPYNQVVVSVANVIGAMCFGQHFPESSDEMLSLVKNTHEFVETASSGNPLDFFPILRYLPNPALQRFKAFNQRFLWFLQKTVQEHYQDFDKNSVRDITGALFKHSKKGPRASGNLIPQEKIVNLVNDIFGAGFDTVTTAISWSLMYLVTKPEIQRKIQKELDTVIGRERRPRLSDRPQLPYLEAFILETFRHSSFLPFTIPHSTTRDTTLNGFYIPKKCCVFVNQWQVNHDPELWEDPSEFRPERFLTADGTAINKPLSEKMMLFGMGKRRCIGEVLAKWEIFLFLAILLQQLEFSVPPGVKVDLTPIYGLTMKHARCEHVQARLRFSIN
As to the kind of experiment: CYP450 inhibition in human liver microsomes, CYP1A2. The experiment is classed as in vitro ADME. As for the experimental part:
as §1

In a further experiment the target is T5, CYP2C19 (Homo sapiens, UniProt P33261).
T5 construct: tissue Corning (USA); host or cells: mixed human liver microsomes
T5 sequence (P33261 whole entry): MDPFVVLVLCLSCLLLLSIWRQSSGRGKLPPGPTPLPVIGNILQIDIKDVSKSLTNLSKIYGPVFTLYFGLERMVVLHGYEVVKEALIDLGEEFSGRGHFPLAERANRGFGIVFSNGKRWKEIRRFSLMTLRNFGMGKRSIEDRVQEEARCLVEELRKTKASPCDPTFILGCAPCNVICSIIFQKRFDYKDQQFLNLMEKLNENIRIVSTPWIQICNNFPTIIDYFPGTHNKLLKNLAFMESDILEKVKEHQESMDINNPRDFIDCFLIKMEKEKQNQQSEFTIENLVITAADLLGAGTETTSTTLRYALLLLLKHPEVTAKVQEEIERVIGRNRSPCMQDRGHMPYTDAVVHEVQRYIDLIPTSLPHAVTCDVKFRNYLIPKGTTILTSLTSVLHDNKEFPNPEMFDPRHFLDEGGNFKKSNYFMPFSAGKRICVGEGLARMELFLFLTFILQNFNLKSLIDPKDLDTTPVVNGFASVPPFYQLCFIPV
As to the kind of experiment: CYP450 inhibition in human liver microsomes, CYP2C19. In kind it is in vitro ADME. Here is the method: as §1

Another experiment addresses T6, human IRAK1 (Homo sapiens, UniProt P51617).
T6 construct: purchased Cama (so in the source)
As to the kind of experiment: IRAK1 MSA (Mobility-Shift Assay) at Km ATP. In kind it is biochemical. Here is the method: 5 μL of the intermediate dilutions were transferred into a black 384-well plate.
IRAK1 was diluted to 7.5 nM in the kinase buffer (50 mM HEPES, pH 7.5, 0.00015% Brij-35, 2 mM DTT). 10 μL of the IRAK1 dilution was transferred to the 384-well plate and co-incubated with the compound for 10-15 min.
The substrate and ATP were diluted to 12.5 μM and 242.5 μM with reaction buffer (50 mM HEPES, pH 7.5, 0.00015% Brij-35, 10 mM MgCl2), respectively. 10 μL of the dilutions was transferred to a 384-well plate and incubated at 28° C. for 1 h. The reaction was terminated by adding 25 μL of 50 mM EDTA to the 384-well plate.
The inhibition rates of IRAK1 by the compounds were calculated by measuring the rate of phosphorylated substrate using a Caliper EZ Reader (PerkinElmer) and the IC50 values were calculated by XL-fit software.

In a further experiment the target is T7, human IRAK4 (Homo sapiens, UniProt Q9NWZ3).
T7 construct: purchased Cama (so in the source)
T7 sequence (Q9NWZ3 1-460): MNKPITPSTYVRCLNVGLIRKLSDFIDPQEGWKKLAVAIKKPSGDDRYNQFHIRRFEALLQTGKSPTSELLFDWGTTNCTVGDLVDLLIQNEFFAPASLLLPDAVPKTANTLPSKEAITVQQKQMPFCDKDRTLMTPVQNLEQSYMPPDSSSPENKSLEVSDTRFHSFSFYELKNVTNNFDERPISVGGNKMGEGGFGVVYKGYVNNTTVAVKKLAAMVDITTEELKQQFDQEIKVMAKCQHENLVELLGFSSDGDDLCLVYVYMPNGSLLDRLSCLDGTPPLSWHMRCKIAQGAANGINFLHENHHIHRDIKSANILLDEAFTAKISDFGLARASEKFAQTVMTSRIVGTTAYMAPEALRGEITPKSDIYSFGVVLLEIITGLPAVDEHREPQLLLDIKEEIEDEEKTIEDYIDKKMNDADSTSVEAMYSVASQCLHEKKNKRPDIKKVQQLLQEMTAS
As to the kind of experiment: IRAK4 MSA (Mobility-Shift Assay) at Km ATP. The experiment is classed as biochemical. The note with it: GST-IRAK4 1 nM, ATP 37 μM (Km); read-out: IC50 for inhibiting human IRAK4 kinase. Here is the method: A recombinant fusion protein of N-terminal GST (glutathione-S-transferase) and human IRAK4 was used as enzyme (GST-IRAK4, kinase IRAK4 (Cama)) at a final concentration of 1 nM; ATP (Sigma) was at a final concentration of 37 μM; the substrates used for the kinase reaction were a 5-FAM (5-carboxyfluorescein)-labeled polypeptide (5-FAM-[…]-COOH) and a substrate peptide FAM-P8 (GL Biochem) at final concentrations of […].
In this assay, 500 μM solutions of the compounds were prepared in 100% DMSO, and serially 4-fold diluted to the 10th concentration gradient with 100% DMSO, followed by a 10-fold dilution in the compound buffer (50 mM HEPES. pH 7.5, 0.00015% Brij-35) to give intermediate dilutions of the compounds at a final concentration of 10 μM-0.04 nM containing 10% DMSO respectively, 5 μL of the dilutions were transferred into a black 384-well plate respectively.
IRAK4 was diluted to 2.5 nM in the kinase buffer (50 mM HEPES, pH 7.5, 0.00015% Brij-35, 2 mM DTT). 10 μL of the IRAK4 dilution was transferred to the 384-well plate and co-incubated with the compound for 10-15 min.
The substrate and ATP were diluted to 12.5 μM and 92.5 μM with reaction buffer (50 mM HEPES, pH 7.5, 0.00015% Brij-35, 10 mM MgCl2), respectively. 10 μL of the dilutions were transferred to a 384-well plate and incubated at 28° C. for 1 h respectively. The reaction was terminated by adding 25 μL of 50 mM EDTA to the 384-well plate.
The inhibition rates of IRAK4 by the compounds were calculated by measuring the rate of phosphorylated substrate using a Caliper EZ Reader (PerkinElmer) and the IC50 values were calculated by XL-fit software.

Experiment [1] concerns TNF-α release in LPS-induced Balb/c female mice. As to the kind of experiment: Inhibition of TNF-α release in LPS-induced Balb/c female mice. More on the design: concentration or dose not given beside the values. As to conditions: oral gavage 5 h before LPS induction, serum 1.5 h after stimulation. The experiment is classed as in vivo, mouse. As for the experimental part:
In the normal control groups, the animals received an intraperitoneal injection of normal saline (10 mL/kg) and in the model groups, the animals received LPS stimulation (Sigma CAT #L2630, i.p., 10 mL/kg, 0.2 mg/kg). During the assay, to the test compounds, DMSO, Solutol and 10 mM PBS were sequentially added to prepare a solution or suspension of required concentration for administration. For the vehicle, DMSO, Solutol and 10 mM PBS were mixed in a volume ratio of 5:15:80. In each of the groups, the animals were administered through oral gavage (10 mL/kg) 5 h before LPS (or saline) stimulation at predetermined doses, and euthanized with CO2 at 1.5 h after the stimulation for cardiac blood collection. The whole blood was not anticoagulated, incubated in wet ice for 1.5 h, and centrifuged at 2000×g at 4° C. for 10 min to separate the serum. The serum was frozen at −80° C. for TNF-α assay. Quantification of the TNF-α was done with TNF-α ELISA kit according to the manufacturer's instruction.

In experiment [2] the test system is IL-6 release in LPS-induced Balb/c female mice. As to the kind of experiment: Inhibition of IL-6 release in LPS-induced Balb/c female mice. The experiment is classed as in vivo, mouse. More on the design: concentration or dose not given beside the values. As to conditions: administered 5 h before LPS induction, serum. As for the experimental part: Objective of the test: To determine the inhibitory effect of the compounds by measuring the plasma IL-6 concentration in a Balb/c mouse model with LPS-induced inflammation.
2.1 Prepared mouse serum samples (sample batch no. 20181218)
4.1 Reagent kit was equilibrated at room temperature (25-28° C.) for 20 min. After each detection, the remaining reagents were stored at 4° C.
4.3 Preparing reference standard: 1 vial of reference standard substance was added with labeled volume of reference standard diluent. The mixtures were incubated for 15 min at room temperature. Then the mixtures were gently mixed to completely dissolve the substance to prepare a reference standard stock at a final concentration of 1000 μg/mL.
4.4 Dilution of samples: The sample in each group was diluted by […], i.e., a 2-fold dilution with sample assay buffer followed by another two-fold dilution with standard diluent.
4.5 The diluted samples or standards of different concentrations were added into corresponding wells at 100 μL/well respectively, and a background correcting well (or a blank well) was set by adding only TMB buffer and terminating solution. The wells were sealed with a transparent film and incubated at room temperature for 120 min.
4.6 The plate was subjected to 5 washes, each with 300 μL of washing buffer for 15-30 sec. The plate was dried on thick absorbent paper after the last wash.
4.7 Biotinylated antibody was added at 100 μL/well (Note: the biotinylated antibody was prepared in advance and could be used directly without further dilution). The wells were sealed with a transparent film and incubated at room temperature for 60 min.
4.8 The plate was subjected to 5 washes, each with 300 μL of washing buffer for 15-30 sec. The plate was dried on thick absorbent paper after the last wash.
4.9 Horseradish peroxidase-labeled streptavidin was added at 100 μL/well. The wells were sealed with a white film and incubated away from light at room temperature for 20 min.
4.10 The plate was subjected to 5 washes, each with 300 μL of washing buffer for 15-30 sec. The plate was dried on thick absorbent paper after the last wash.
4.11 The chromogenic reagent TMB was added 100 μL/well. The wells were sealed with a white film and incubated away from light at room temperature for 20 min.
4.12 The terminating solution was added at 50 μL/well and A450 value was measured right after mixing.

Some results are limits rather than exact numbers.

T6 sequence (P51617 whole entry): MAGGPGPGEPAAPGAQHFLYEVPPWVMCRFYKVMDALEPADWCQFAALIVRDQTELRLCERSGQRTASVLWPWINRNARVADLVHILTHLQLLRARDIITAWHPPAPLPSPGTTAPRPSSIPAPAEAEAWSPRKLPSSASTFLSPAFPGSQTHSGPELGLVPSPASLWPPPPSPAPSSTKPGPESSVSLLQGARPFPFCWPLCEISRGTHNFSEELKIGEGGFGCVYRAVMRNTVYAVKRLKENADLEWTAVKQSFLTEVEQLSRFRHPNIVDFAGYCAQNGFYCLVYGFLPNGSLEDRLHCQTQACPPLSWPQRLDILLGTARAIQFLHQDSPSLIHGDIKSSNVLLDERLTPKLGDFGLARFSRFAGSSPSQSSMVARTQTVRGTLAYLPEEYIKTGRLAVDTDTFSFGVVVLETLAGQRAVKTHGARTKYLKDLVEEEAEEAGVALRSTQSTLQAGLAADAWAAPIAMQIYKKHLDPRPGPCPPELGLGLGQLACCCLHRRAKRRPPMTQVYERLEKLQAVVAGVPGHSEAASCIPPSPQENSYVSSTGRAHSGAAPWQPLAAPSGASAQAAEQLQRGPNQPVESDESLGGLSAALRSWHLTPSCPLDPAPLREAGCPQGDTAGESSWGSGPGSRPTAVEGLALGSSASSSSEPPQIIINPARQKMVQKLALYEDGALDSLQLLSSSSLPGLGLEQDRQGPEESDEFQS
T1 sequence (P08684 whole entry): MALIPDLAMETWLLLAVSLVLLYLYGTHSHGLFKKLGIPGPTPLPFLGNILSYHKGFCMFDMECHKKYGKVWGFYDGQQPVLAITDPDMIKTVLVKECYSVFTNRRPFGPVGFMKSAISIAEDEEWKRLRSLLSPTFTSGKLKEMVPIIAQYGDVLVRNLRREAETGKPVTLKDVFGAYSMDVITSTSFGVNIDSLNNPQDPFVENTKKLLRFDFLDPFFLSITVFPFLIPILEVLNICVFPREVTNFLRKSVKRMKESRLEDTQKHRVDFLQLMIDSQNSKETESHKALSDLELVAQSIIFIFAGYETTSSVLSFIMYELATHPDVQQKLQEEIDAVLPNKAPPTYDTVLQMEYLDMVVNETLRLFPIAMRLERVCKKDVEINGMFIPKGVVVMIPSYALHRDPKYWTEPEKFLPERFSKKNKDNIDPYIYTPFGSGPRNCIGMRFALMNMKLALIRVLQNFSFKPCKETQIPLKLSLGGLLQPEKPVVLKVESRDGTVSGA

Usually IC50 stands for the concentration needed to halve the response being measured. For `CC(C)(O)CCn1cc2cc(NC(=O)c3cccc(C(F)(F)F)n3)c(C(C)(C)O)cc2n1` [MYA, reference compound], the IC50 is > 30 µM against CYP3A4; 19.1 µM against CYP2C9; > 30 µM on CYP2D6; 2.91 µM against CYP1A2; 23.5 µM against CYP2C19.

As to `CC(C)(O)c1cc2nn([C@H]3C[C@H](C(C)(C)O)C3)cc2cc1NC(=O)c1cccc(C(F)(F)F)n1` [MY-004-109], the IC50 came out at 4.32 µM on human IRAK1 and 0.0058 µM at human IRAK4. For the same molecule, the “IC50 (IRAK1)/IC50 (IRAK4)” value on human IRAK1 (selectivity for IRAK4) was found to be 745.

On to `COc1cc2nn([C@H]3C[C@H](C(C)(C)O)C3)cc2cc1NC(=O)c1cccc(C(F)F)n1` [MY-004-115], for which the “Inhibition rate of TNF-α” value in [1] was 89.59%. In addition, the “Inhibition rate of IL-6” value in [2] stood at 93.35%. The IC50 on human IRAK4 was found to be 0.002 µM.
